From patent US10660877B2 (BRISTOL-MYERS SQUIBB COMPANY, priority 2016, dated 2020)
Where two headings read alike, the source gives them in different places.

Experiments:
[1] = biological target: human TLR8 (Homo sapiens (Human), UniProt Q9NR97); experiment: TLR8 inhibition reporter assay (HEK-Blue cells, SEAP reporter, R848 stimulation);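 note: compounds tested from 0.05 nM to 50 µM, 22 h at 37 °C, SEAP measured with HEK-Blue Detection, inhibition relative to agonist plus DMSO versus a known inhibitor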
Sequence of human TLR8 (Q9NR97 27-1041): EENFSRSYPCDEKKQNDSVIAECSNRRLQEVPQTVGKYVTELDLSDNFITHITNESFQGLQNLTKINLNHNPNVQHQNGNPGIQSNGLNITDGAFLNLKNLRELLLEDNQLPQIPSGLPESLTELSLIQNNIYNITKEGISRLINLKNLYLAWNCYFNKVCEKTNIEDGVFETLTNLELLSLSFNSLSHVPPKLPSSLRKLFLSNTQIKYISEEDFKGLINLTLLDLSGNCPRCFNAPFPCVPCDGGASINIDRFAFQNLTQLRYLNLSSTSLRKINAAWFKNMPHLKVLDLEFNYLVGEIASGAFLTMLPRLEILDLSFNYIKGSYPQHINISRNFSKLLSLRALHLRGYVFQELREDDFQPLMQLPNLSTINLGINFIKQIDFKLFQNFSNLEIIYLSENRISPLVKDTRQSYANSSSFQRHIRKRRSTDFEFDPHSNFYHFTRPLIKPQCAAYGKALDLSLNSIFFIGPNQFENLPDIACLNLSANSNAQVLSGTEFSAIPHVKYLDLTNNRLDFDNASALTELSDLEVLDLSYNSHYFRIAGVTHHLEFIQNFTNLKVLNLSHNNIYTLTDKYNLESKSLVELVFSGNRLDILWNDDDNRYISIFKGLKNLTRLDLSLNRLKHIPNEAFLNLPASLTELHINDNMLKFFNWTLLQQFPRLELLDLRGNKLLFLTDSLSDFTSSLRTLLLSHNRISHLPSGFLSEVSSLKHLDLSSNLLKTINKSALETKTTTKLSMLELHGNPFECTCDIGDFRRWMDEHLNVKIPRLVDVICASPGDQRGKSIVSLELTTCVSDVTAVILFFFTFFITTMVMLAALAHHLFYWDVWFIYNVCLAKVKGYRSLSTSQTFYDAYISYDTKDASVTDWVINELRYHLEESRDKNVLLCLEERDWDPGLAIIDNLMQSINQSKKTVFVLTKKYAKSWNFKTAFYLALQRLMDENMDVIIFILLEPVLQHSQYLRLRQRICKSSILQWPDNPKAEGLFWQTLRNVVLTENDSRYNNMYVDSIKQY
Experimental: TLR7/8/9 Inhibition Reporter Assays
Briefly, cells are seeded into Greiner 384 well plates (15000 cells per well for TLR7, 20,000 for TLR8 and 25,000 for TLR9) and then treated with test compounds in DMSO to yield a final dose response concentration range of 0.05 nM-50 μM. […] After a 22 hour incubation at 37° C., 5% CO2, SEAP levels are determined with the addition of HEK-Blue™ Detection reagent (Invivogen), a cell culture medium that allows for detection of SEAP, according to manufacturer's specifications. The percent inhibition is determined as the % reduction in the HEK-Blue signal present in wells treated with agonist plus DMSO alone compared to wells treated with a known inhibitor.

[2] = biological target: human TLR9 (Homo sapiens (Human), UniProt Q9NR96); experiment: TLR9 inhibition reporter assay (HEK-Blue cells, SEAP reporter, ODN2006 stimulation);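 note: compounds tested over 0.05 nM to 50 µM, 22 h incubation, inhibition taken as SEAP signal drop from agonist plus DMSO wells toward a known inhibitor control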
Sequence of human TLR9 (Q9NR96 26-1032): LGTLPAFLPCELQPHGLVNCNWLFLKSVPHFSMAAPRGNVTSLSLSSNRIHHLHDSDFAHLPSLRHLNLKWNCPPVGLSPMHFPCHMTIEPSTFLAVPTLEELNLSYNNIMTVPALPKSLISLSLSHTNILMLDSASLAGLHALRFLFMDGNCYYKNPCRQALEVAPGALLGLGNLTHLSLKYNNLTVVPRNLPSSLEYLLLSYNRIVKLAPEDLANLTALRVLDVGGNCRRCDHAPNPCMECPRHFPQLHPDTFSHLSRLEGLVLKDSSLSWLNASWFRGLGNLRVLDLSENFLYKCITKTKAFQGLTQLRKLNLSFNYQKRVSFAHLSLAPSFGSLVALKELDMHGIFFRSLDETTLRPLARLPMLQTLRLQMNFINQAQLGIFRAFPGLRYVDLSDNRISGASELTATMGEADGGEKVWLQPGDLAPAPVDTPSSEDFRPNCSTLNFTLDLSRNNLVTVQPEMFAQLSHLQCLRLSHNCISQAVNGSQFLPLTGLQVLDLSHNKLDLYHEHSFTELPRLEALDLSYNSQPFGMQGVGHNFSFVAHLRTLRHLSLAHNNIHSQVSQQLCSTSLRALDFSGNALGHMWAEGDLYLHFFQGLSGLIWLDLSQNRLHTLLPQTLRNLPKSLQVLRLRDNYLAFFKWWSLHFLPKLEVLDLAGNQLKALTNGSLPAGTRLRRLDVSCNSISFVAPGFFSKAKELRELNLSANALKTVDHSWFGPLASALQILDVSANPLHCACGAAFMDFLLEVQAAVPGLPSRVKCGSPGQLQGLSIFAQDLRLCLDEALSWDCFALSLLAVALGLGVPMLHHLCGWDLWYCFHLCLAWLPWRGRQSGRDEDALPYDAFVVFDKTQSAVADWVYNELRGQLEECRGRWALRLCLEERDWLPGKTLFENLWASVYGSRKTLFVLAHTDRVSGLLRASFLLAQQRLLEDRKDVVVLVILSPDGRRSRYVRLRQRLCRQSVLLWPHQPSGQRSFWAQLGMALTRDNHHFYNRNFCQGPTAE

[3] = biological target: human TLR7 (Homo sapiens (Human), UniProt Q9NYK1); experiment: TLR7 inhibition reporter assay (HEK-Blue cells, SEAP reporter, gardiquimod stimulation); format: cell-based; conditions: HEK-Blue cells overexpressing human TLR7, gardiquimod 7.5 μM
Sequence of human TLR7 (Q9NYK1 27-1049): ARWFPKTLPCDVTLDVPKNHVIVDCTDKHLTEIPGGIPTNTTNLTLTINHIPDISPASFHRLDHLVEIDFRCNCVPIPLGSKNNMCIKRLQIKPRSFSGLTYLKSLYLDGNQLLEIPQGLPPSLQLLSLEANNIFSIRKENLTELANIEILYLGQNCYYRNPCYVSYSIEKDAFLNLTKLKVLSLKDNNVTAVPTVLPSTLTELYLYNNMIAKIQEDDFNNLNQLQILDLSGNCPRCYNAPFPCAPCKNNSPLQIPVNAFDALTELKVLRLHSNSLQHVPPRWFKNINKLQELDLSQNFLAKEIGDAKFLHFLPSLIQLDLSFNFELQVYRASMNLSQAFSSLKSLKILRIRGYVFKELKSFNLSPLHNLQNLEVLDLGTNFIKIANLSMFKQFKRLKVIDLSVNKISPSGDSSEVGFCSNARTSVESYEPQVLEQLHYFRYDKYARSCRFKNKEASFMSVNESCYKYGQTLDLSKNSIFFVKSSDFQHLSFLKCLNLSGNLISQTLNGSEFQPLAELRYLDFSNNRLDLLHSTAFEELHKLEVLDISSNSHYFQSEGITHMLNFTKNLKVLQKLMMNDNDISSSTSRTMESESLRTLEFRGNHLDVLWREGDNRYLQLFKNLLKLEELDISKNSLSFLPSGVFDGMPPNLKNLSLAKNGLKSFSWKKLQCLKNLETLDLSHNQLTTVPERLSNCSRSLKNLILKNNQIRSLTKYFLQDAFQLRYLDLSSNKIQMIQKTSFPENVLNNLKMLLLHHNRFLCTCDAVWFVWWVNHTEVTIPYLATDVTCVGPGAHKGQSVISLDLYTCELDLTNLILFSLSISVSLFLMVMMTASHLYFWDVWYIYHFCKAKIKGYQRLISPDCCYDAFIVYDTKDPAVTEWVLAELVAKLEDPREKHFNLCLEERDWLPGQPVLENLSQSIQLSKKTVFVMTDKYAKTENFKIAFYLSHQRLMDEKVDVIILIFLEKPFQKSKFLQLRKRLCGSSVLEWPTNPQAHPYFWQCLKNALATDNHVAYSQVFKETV

[4] = read-out: TLR8 IC50, HEK-Blue cells overexpressing human TLR8, R848 15.9 μM
[5] = read-out: TLR9 IC50, HEK-Blue cells overexpressing human TLR9, ODN2006 5 nM

| Structure (SMILES) | IC50 [1, 4] [nM] | IC50 [2, 5] [nM] | IC50 [3] [nM] | IC50 ([1]; TLR8 IC50, HEK-Blue cells overexpressing human TLR8, R848 15.9 μM) [nM] | IC50 ([2]; TLR9 IC50, HEK-Blue cells overexpressing human TLR9, ODN2006 5 nM) [nM] |
| --- | --- | --- | --- | --- | --- |
| Cc1cc(-c2[nH]c3ccc(C4CCN(CC(=O)NCC(C)O)CC4)cc3c2C(C)C)cc(C)n1 (stereo not drawn) [Example 260, 2-(4-(2-(2,6-dimethylpyridin-4-yl)-3-isopropyl-1H-indol-5-yl)piperidin-1-yl)-N-(2-hydroxypropyl) acetamide] | 5.1 | 379 | 1.5 |  |  |
| Cc1cc(-c2[nH]c3ccc(C4CCN(Cc5nnn[nH]5)CC4)cc3c2C(C)C)c(F)cn1 [Example 696, 5-(1-((1H-tetrazol-5-yl)methyl)piperidin-4-yl)-2-(5-fluoro-2-methylpyridin-4-yl)-3-isopropyl-1H-indole] | 104 | > 50000 | 408 |  |  |
| Cc1cc(-c2[nH]c3ccc(C4CCN(C(=O)CN5CCCCS5(=O)=O)CC4)cc3c2C(C)C)cc(C)n1 [Example 167, 1-(4-(2-(2,6-dimethylpyridin-4-yl)-3-isopropyl-1H-indol-5-yl)piperidin-1-yl)-2-(1,1-dioxido-1,2-thiazinan-2-yl)ethan-1-one] | 50.9 | 250 | 5.9 |  |  |
| Cc1cc(-c2[nH]c3ccc(C4CCN(C(=O)CN(C)CCC5(O)CCCC5)CC4)cc3c2C(C)C)cc(C)n1 [Example 408, 1-(4-(2-(2,6-dimethylpyridin-4-yl)-3-isopropyl-1H-indol-5-yl)piperidin-1-yl)-2-((2-(1-hydroxycyclopentyl)ethyl)(methyl)amino)ethan-1-one] | 72.5 | 846 | 7.6 |  |  |
| CCc1cc(-c2[nH]c3ccc(C4CCNCC4)cc3c2C(C)C)c(F)cn1 [Example 482, 2-(2-ethyl-5-fluoropyridin-4-yl)-3-isopropyl-5-(piperidin-4-yl)-1H-indole] | 19.2 | 3690 | 10.6 |  |  |
| Cc1nccc(-c2[nH]c3ccc(C4CCNCC4)cc3c2C(C)C)c1F [Example 53, 2-(3-fluoro-2-methylpyridin-4-yl)-3-isopropyl-5-(piperidin-4-yl)-1H-indole] | 1.2 | 2300 | 2.9 |  |  |
| CCc1c(-c2ccnc(C)c2)[nH]c2ccc(C3CCN(C(=O)[C@@H]4CCCCN4)CC3)cc12 [Example 628, (S)-(4-(3-ethyl-2-(2-methylpyridin-4-yl)-1H-indol-5-yl)piperidin-1-yl)(piperidin-2-yl)methanone] |  |  | 39.2 | 18.3 | 363 |
| Cc1cc(-c2[nH]c3ccc(C4CCNCC4)cc3c2C(C)C)c(C)cn1 [Example 31, 2-(2,5-dimethylpyridin-4-yl)-3-isopropyl-5-(piperidin-4-yl)-1H-indole] | 1 | 963 | 2.6 |  |  |
| Cc1nccc(-c2[nH]c3ccc(C4CCNCC4)cc3c2C(C)C)c1N [Example 13, 4-(3-isopropyl-5-(piperidin-4-yl)-1H-indol-2-yl)-2-methylpyridin-3-amine] | 90 | 419 | 16.1 |  |  |
| COc1cc(-c2[nH]c3ccc(C4CCN(Cc5c[nH]c(C)n5)CC4)cc3c2C(C)C)ccn1 [Example 520, 3-isopropyl-2-(2-methoxypyridin-4-yl)-5-(1-((2-methyl-1H-imidazol-4-yl)methyl)piperidin-4-yl)-1H-indole] | 27.1 | 437 | 42.7 |  |  |
| Cc1cc(-c2[nH]c3ccc(C4CCN(CC(=O)N(C)C5CC5)CC4)cc3c2C(C)C)cc(C)n1 [Example 248, N-cyclopropyl-2-(4-(2-(2,6-dimethylpyridin-4-yl)-3-isopropyl-1H-indol-5-yl)piperidin-1-yl)-N-methylacetamide] | 10.2 | 343 | 2.3 |  |  |
| Cc1cc(-c2[nH]c3ccc(C4CCN(Cc5nnc(C6CC6)o5)CC4)cc3c2C(C)C)c(C)cn1 [Example 697, 2-cyclopropyl-5-((4-(2-(2,5-dimethylpyridin-4-yl)-3-isopropyl-1H-indol-5-yl)piperidin-1-yl)methyl)-1,3,4-oxadiazole] | 20.7 | > 50000 | 223 |  |  |
